Test results as given in the supplement of paper PMC8882468.
± gives the standard deviation of the averaged measurements.

Key:
Experiment in all cases: CTG-3D luminescence at 96 h relative to day-0 seeding control (ratio to day 0); higher = more growth / less cytotoxicity; PDxO 3D drug screen, 96 h, CTG-3D normalised to day-0 seeding control.
[1] = test system: HCI-027 (organoid from a triple-negative breast cancer xenograft)
[2] = test system: HCI-025 (organoid from a breast cancer xenograft)
[3] = test system: HCI-003.E2 (organoid from an ER-positive breast cancer xenograft)
[4] = test system: HCI-024 (organoid from a breast cancer xenograft)
[5] = test system: HCI-016 (organoid from a triple-negative breast cancer xenograft)

C/C=C1\NC(=O)[C@H]2CSSCC/C=C/[C@H](CC(=O)N[C@H](C(C)C)C(=O)N2)OC(=O)[C@H](C(C)C)NC1=O [romidepsin]
CTG-3D luminescence at 96 h
Settings	12.5 pM	0.00025 µM	0.005 µM	0.1 µM	1 µM	10 µM	100 µM	625 fM
[1], days in culture: 176	2.43	1.27	0.05	0.0166	0.376	-0.165	-0.237	2.12
[1], days in culture: 194	2.63	1.95	0.739	0.437	0.349	-0.0181	-0.0853	2.17
[1], days in culture: 201	3.22	2.72	1.35	0.611	0.234	0.136	-0.0194	3.25
[2], days in culture: 172	1.84	1.14	1.58	-0.245	-0.354	-0.306	-0.318	1.48
[2], days in culture: 209	1.99	2.87	1.48	0.312	0.313	0.034	-0.0293	1.94
[2], days in culture: 218	1.5	2.01	0.886	-0.155	-0.189	-0.329	-0.306	1.84
[4], days in culture: 105	1.55	1.48	0.453	0.311	0.111	0.00592	-0.00576	1.92
[4], days in culture: 122	1.84	2.34	0.619	0.277	0.107	0.00509	-0.00823	1.91
[4], days in culture: 163	1.76	1.96	0.576	0.334	0.124	0.00767	-0.00793	1.96
[5], days in culture: 153	2.79	0.384	0.563	0.106	0.214	-0.00553	-0.0108	2.21
[5], days in culture: 172	2.29	1.31	0.385	0.107	0.127	0.00531	-0.0131	1.69
[5], days in culture: 190	1.76	1.62	0.684	0.0156	0.0109	-0.0529	-0.107	1.55
[5], days in culture: 199	2	2.14	0.631	0.071	0.0656	-0.00558	-0.0191	2.15

[3]
Settings	CTG-3D luminescence at 96 h
12.5 pM	1.2 ± 0.82
0.00025 µM	0.624 ± 0.17
0.005 µM	0.21 ± 0.044
0.1 µM	0.0473 ± 0.022
1 µM	0.0243 ± 0.015
10 µM	0.0035 ± 0.0027
100 µM	-0.00659 ± 0.0022
625 fM	0.719 ± 0.31
